The source of these data is patent US6951729B1, “High throughput screening method for biological agents affecting fatty acid biosynthesis” (Affinium Pharmaceuticals, Inc., priority 1999, dated 2005).

The subject of experiment [1] is bacterial fatty acid biosynthesis. As to conditions: cited from earlier work.
The next experiment concerns FabK. The experiment in a line: FabK activity assay, activation by monovalent cations. It is filed as biochemical, Streptococcus pneumoniae. As to conditions: NH4+ at 100 mM. The method, then:
FabK catalyses the reduction of enoyl-ACPs with the concommitant oxidation of NADH. Crotonoyl-ACP can be prepared as described below. The reduction of crotonoyl-ACP to butyryl-ACP can be monitored by following the change in absorbance at 340 nm as NADH is oxidised.
Assays were carried out in Costar 3696 half-area plates in a fmal assay volume of 150 μl on a Spectramax platereader. Substrates, NADH and crotonoyl ACP, were incubated with FabK enzyme in […] N-[2-acetamido]-2 iminodiacetic acid (ADA), pH 6.5, 100 mM NH4Cl, 4% glycerol at 30° C. and the reaction monitored at 340 nm. This assaying can also be performed using crotonyl CoA, NADPH or an NADH analogue as a substrate.

For experiment [2], the system named is FabH. As to conditions: through formation of dead end inhibition complexes with enzyme.
Experiment [3] concerns the target FabH (Escherichia coli, UniProt P0A6R0). As to conditions: Heath et al. 1996; cited from earlier work.
For the next experiment, the target named is FabI (Escherichia coli, UniProt P0AEK4). As to conditions: Heath et al. 1996; cited from earlier work.
Chain of FabI (P0AEK4 whole entry): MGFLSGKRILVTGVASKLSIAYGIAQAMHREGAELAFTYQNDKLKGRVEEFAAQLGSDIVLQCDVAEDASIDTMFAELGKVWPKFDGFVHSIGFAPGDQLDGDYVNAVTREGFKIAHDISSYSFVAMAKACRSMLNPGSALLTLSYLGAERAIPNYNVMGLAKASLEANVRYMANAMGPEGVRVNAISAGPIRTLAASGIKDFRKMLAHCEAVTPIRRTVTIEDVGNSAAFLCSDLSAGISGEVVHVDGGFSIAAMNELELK

Chain of FabH (Escherichia coli, UniProt P0A6R0) (P0A6R0 whole entry): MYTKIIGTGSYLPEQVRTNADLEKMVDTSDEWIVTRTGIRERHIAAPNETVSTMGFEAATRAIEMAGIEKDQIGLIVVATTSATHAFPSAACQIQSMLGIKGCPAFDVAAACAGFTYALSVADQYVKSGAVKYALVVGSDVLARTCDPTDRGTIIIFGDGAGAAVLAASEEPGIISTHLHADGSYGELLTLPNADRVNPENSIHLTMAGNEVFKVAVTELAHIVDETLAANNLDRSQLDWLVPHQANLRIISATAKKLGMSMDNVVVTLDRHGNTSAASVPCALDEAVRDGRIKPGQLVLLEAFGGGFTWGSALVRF

`C/C=C/C/C=C/CCC(=O)[C@H]1O[C@H]1C(N)=O` [Cerulenin]: the “inhibition of bacterial fatty acid biosynthesis” value in experiment [1] is on record as “potent inhibitors”. With `N` [NH4^+], in the experiment with FabK, the “activation of the FabK reaction over the reaction with no monovalent cations” value is on record as “about 300 fold”. As for `C=C/C(C)=C/[C@@]1(C)SC(=O)C(C)=C1O` [thiolactomycin], the “inhibition of bacterial fatty acid biosynthesis” value in experiment [1] is on record as “potent inhibitors”. Regarding Acetyl-ACP, in the experiment with FabH [2], the “inhibition of FabH” value is “inhibitor of FabH”. For the compound palmitoyl-ACP, at FabH [3], the “feedback inhibition of FabH” value is given as “feedback inhibition”. Besides, on FabI, the “feedback inhibition of FabI” value is recorded as “feedback inhibition”.
